Laboratory results reported in PubChem BioAssay (NCI).
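Step 1: Grow cells in 96-well plates. Step 2: Expose to compound for 48 hours at 5 concentrations. Step 3: Interpolate endpoints linearly; if unreached, use highest concentration. Abbreviation: GI50, concentration required for 50% inhibition of growth. TGI: total growth inhibition.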 Where a SMILES comes first, the peptide text is derived from it. Bridges are numbered along the chain shown (N, C = ends). Roman numbers before positions name the chains, in order. [ ]: non-standard residue; d: D form. The star is where a group is joined. Quinoxaline2carbonyl = O=C(c1cnc2ccccc2n1)*; NMeV = CN[CH](C(=O)O)C(C)C; NMeC = CN[CH](CS)C(=O)O

How the values were obtained:
Assay in all cases: inhibition of tumour cell growth, NCI panel, 48 h
LXFL 529 NSCLC = test system: LXFL 529 NSCLC
XF 498 CNS = test system: XF 498 CNS
M19-MEL melanoma = test system: M19-MEL melanoma
KM20L2 colon = test system: KM20L2 colon
DMS 273 small cell lung = test system: DMS 273 small cell lung
MDA-N = test system: MDA-N
HOP-18 NSCLC = test system: HOP-18 NSCLC
SNB-78 CNS = test system: SNB-78 CNS
RXF-631 renal = test system: RXF-631 renal

Compound	TGI (LXFL 529 NSCLC)	TGI (XF 498 CNS)	TGI (M19-MEL melanoma)	TGI (KM20L2 colon)	TGI (DMS 273 small cell lung)	TGI (MDA-N)	TGI (HOP-18 NSCLC)	TGI (SNB-78 CNS)	also measured
Cc1cc(N(CCC#N)CCC#N)ccc1/C=C1/N=C(c2ccccc2)N(N)C1=O	> 100 µM	> 100 µM	> 100 µM	> 100 µM	> 100 µM	–	–	–	–
CC1(C)OC2C(=O)C=C(COCc3ccccc3)C2O1 (stereo not given)	–	–	–	–	–	> 100 µM	–	–	–
CC1CN1c1c(C(=O)/C=C/c2ccccc2)c(-c2ccccc2)nn(C)c1=O (stereo not given)	28.9 µM	–	35.1 µM	36.2 µM	30.3 µM	–	71.5 µM	33.7 µM	–
CNS(=O)(=O)NNS(=O)(=O)c1ccc(Cl)cc1	–	–	> 100 µM	> 100 µM	–	–	–	–	TGI (RXF-631 renal): > 100 µM
COC12c3ccccc3-c3ccccc3C1[C@H]1C(=O)OC(=O)[C@H]12 (stereo not given in full)	–	–	–	–	–	> 10 µM	–	–	–
COc1ccc(-c2cc(=O)c3c(OC)c(OC)c(OC)c(OC)c3o2)cc1	–	–	–	–	–	> 100 µM	–	–	–
Cc1ccc(NC(=O)c2ccccc2C(=O)O)cc1C	–	–	–	–	–	> 100 µM	–	–	–
CCCCCCN(N)C(=O)CC#N	> 100 µM	–	> 100 µM	> 100 µM	> 100 µM	–	> 100 µM	> 100 µM	TGI (RXF-631 renal): > 100 µM
CCOC1=C2N=C(Cc3ccccc3F)N=C2C(=O)c2ccccc21	> 100 µM	> 100 µM	> 100 µM	> 100 µM	> 100 µM	–	> 100 µM	–	–
CN(C)CCC(/C=C/c1ccccc1)=N\Nc1ccc(Cl)cc1Cl	22.8 µM	–	29 µM	–	25.9 µM	–	21.9 µM	26.9 µM	–
CN1COc2c(n(C)c(=O)[nH]c2=O)C1	> 100 µM	> 100 µM	> 100 µM	> 100 µM	> 100 µM	–	> 100 µM	> 100 µM	–
c1ccc(P(=Nc2ccccc2N=P(c2ccccc2)(c2ccccc2)c2ccccc2)(c2ccccc2)c2ccccc2)cc1	12.1 µM	0.543 µM	12.1 µM	10.3 µM	10 µM	–	0.844 µM	19.9 µM	TGI (RXF-631 renal): 6.64 µM
O=C(O)/C(Cl)=C(\Cl)C(=O)Nc1ccc(Cl)c(Cl)c1Cl	37.9 µM	–	30.8 µM	44.7 µM	36.2 µM	–	31 µM	84.7 µM	–
CN(C)CC1CCCC1=O (stereo not given)	1.4 µM	2.11 µM	2.33 µM	5.32 µM	3.28 µM	–	3.16 µM	6.12 µM	TGI (RXF-631 renal): 0.377 µM
COc1cc(-c2cc(-c3cc([N+](=O)[O-])c(/C=N/NC(=O)c4ccncc4)o3)ccc2OC)ccc1C	> 100 µM	> 100 µM	> 100 µM	> 100 µM	–	–	–	–	TGI (RXF-631 renal): > 100 µM
COc1ccc(C(Cl)=C(c2ccc(OCCN(C)C)cc2)c2ccc(OCCN(C)C)cc2)cc1	–	2.81 µM	–	2.74 µM	4.17 µM	–	–	3.94 µM	TGI (RXF-631 renal): 0.966 µM
O=C(O)COc1c(Cl)cc(Cl)c2cccnc12	–	–	–	–	–	> 100 µM	–	–	–
CC1(C)C2CCC13CS(=O)(=O)N1O[C@]13C(=O)O2 (stereo not given in full)	> 100 µM	–	> 100 µM	> 100 µM	–	–	> 100 µM	> 100 µM	TGI (RXF-631 renal): > 100 µM
CSC(=S)N/N=C(\C)c1cccc(C)n1	–	–	–	–	–	> 90 µM	–	–	–
Cn1c2ccccc2n2c(=O)c3c(c(C#N)c12)CCCC3	–	> 100 µM	> 100 µM	> 100 µM	> 100 µM	–	–	> 100 µM	–
CC(C)c1c2[nH]c3ccccc3c2c(C(C)C)c2[nH]c3ccccc3c12	> 100 µM	> 100 µM	> 100 µM	> 100 µM	> 100 µM	–	> 100 µM	> 100 µM	TGI (RXF-631 renal): > 100 µM

Compound	TGI (LXFL 529 NSCLC)	TGI (XF 498 CNS)	TGI (M19-MEL melanoma)	TGI (KM20L2 colon)	TGI (DMS 273 small cell lung)	TGI (MDA-N)	TGI (HOP-18 NSCLC)	TGI (SNB-78 CNS)	also measured
c1ccc2c3c([nH]c2c1)C1CCCN1CC3 (stereo not given)	–	–	–	–	–	> 10 µM	–	–	–
Cc1ccc(S(=O)OC2C3CC4CC(C3)CC2C4)cc1 (stereo not given)	> 100 µM	> 100 µM	> 100 µM	> 100 µM	> 100 µM	–	> 100 µM	> 100 µM	–
O=P1(Oc2ccccc2)C(c2ccccc2)C(c2ccccc2)=NN1c1ccccc1 (stereo not given)	45.7 µM	> 100 µM	54.9 µM	44.9 µM	89.3 µM	–	> 100 µM	> 100 µM	TGI (RXF-631 renal): > 100 µM
C[CH2][Pb]([CH2]C)([CH2]C)[O]C(=O)c1ccc2ccccc2n1	–	–	–	–	–	> 10 µM	–	–	GI50 (MDA-N): > 10 µM
CN(C)c1ccc(N=Nc2ccncc2)cc1	–	–	–	–	–	> 100 µM	–	–	–
O=C([CH-]C(=O)c1ccccc1)c1ccccc1.O=C([CH-]C(=O)c1ccccc1)c1ccccc1.[OH-].[OH-].[Ti+4]	–	–	–	> 100 µM	–	–	–	–	GI50 (KM20L2 colon): > 100 µM
CC1(C)CCC[C@]2(C)[C@@H](C=O)C(C=O)=CC[C@@H]12	–	–	–	–	–	26.4 µM	–	–	–
N#Cc1ccc(N=Cc2c([O-])ccc3ccccc23)cc1.[C-]#[O+].[C-]#[O+].[Ir]	4.32 µM	12 µM	–	29.5 µM	–	–	8.51 µM	–	GI50 (HOP-18 NSCLC): 2.74 µM; GI50 (LXFL 529 NSCLC): 1.84 µM; GI50 (XF 498 CNS): 2.36 µM; GI50 (KM20L2 colon): 16 µM
COC(CN1C=C(Sc2ccccc2)CC1)OC	–	66.3 µM	97.7 µM	> 100 µM	–	–	> 100 µM	> 100 µM	–
N/N=C1\CC(=O)NC(=O)N1	–	–	–	–	–	> 100 µM	–	–	–
Cc1ccc(C2=Nc3ccccc3SC(c3cccc([N+](=O)[O-])c3)C2)cc1 (stereo not given)	–	–	–	–	–	> 100 µM	–	–	–
Cn1cncc1CC1COC(=O)C1C(O)c1ccccc1 (stereo not given)	–	–	–	–	–	> 100 µM	–	–	–
COCCOCOc1ccc(OCOCCOC)c2c1C(=O)c1ccccc1C2=O	–	> 100 µM	39 µM	> 100 µM	> 100 µM	–	> 100 µM	> 100 µM	–
Cc1cc2c(c(C(=O)O)c1C)-c1cccc(F)c1C2=O	> 100 µM	> 100 µM	> 100 µM	> 100 µM	> 100 µM	–	–	> 100 µM	TGI (RXF-631 renal): > 100 µM
[N-]=[N+]=C1C(=O)C2CC3CC(C2)CC1C3	> 100 µM	> 100 µM	> 100 µM	> 100 µM	> 100 µM	–	> 100 µM	> 100 µM	–
CC1NC(=O)C(NC(=O)c2cnc3ccccc3n2)COC(=O)C(C(C)C)N(C)C(=O)C2CSSCC(C(=O)N(C)C(C(C)C)C(=O)OCC(NC(=O)c3cnc4ccccc4n3)C(=O)NC(C)C(=O)N2C)N(C)C1=O (stereo not given) (I: Quinoxaline2carbonyl-SA[NMeC][NMeV] / II: Quinoxaline2carbonyl-SA[NMeC][NMeV]; ester I:1-II:C, I:C-II:1; disulfide I:3-II:3; configuration not given here)	–	–	–	–	–	< 0.01 µM	–	–	–
CCC1(O)C(=O)OCc2c1cc1n(c2=O)Cc2cc3cc(N)ccc3nc2-1 (stereo not given)	–	–	–	–	–	0.285 µM	–	–	–
CN(CC(N)=O)C(=O)N(CCCl)N=O	–	–	–	–	–	> 100 µM	–	–	–
O=C(NC1CCCC1=O)c1ccccc1 (stereo not given)	–	> 100 µM	> 100 µM	> 100 µM	> 100 µM	–	–	> 100 µM	TGI (RXF-631 renal): > 100 µM
CCO/C=C1\N=C(c2ccccc2Br)OC1=O	> 100 µM	> 100 µM	> 100 µM	> 100 µM	> 100 µM	–	–	> 100 µM	–
COc1cc2nc(NCCCCCNC(=O)c3ccco3)nc(N)c2cc1OC	–	–	61.4 µM	> 100 µM	> 100 µM	–	> 100 µM	89.5 µM	TGI (RXF-631 renal): 74.1 µM
